Experimental data reported in patent publication US11266715B2, “C3A receptor agonists for use against ischemic brain injury, stroke, traumatic brain injury, spinal cord injury and neurodegenerative disorders” (priority 2016, dated 2022).

How the values were obtained:
[1] = Body weight gain after neonatal HI and intranasal treatment; type: in vivo, mouse; details: across surgeries, treatments and genotypes
Source text: Unpaired t test was used to analyze the cue-induced fear conditioning experimental data. For the analysis of the total exploration time during the object recognition test and the open field experiment, one-way Analysis of Variance (ANOVA) was used, followed by a Tukey's multiple comparisons post-hoc test. Two-way ANOVA, with a Tukey's multiple comparisons post-hoc test, was used to analyze time spent exploring individual objects during the object recognition test, as well as the histomorphologic data and image analysis data. Two-way repeated measures ANOVA with a Tukey's multiple comparisons post-hoc test were used to analyze the body weight. Data are presented as mean±SEM. P values <0.05 were considered statistically significant.
To assess potential adverse effects of intranasal C3a administration on the overall animal health status and development, the inventors recorded animal weight gain across surgeries, treatments and different genotype conditions.

[2] = test system: WT mice subjected to photothrombotic stroke in the motor cortex; experiment: Grid walking task after photothrombotic stroke; type: in vivo, mouse
Procedure: Cortical photothrombosis was induced using the Rose Bengal method (Lee et al., 2007; Watson et al., 1985) with some modifications. Anesthesia was induced with isoflurane (Forene®, Abbott) in air and oxygen (1:1) initially at 5% and reduced to 2.5% during the surgical procedure. Body temperature was monitored by a rectal probe and maintained at 37° C. using a homeothermic control unit (Harvard Apparatus). Anesthetized mice were placed in a stereotaxic frame, the skull was exposed through a midline scalp incision and Rose Bengal (200 μl, 10 mg/ml solution in sterile saline, Sigma) was injected intraperitoneally. After 5 min, the skull and underlying brain tissue were illuminated for 12 min by a 2 mm diameter cold laser beam (50 mW, 561 nm; Cobolt AB) positioned at AP +0.5 mm and ML −2.7 mm relative to Bregma, targeting the border between left primary somatosensory and motor cortex (Porritt et al., 2012). For intervention experiments targeting motor cortex, stroke was induced as above with the following modifications: Transcranial illumination lasting 15 min was delivered using cold light source (LQ1600, Fiberoptic-Heim AG) equipped with 2 mm wide fiber optic probe and directed to AP +0 and ML −1.5 relative to Bregma. After illumination, the scalp was sutured and mice were placed in a warm cage for 45 min to recover from anesthesia prior to being returned to the home cage. Mice were provided with moist mashed food placed on the floor of the home cage and their weight was monitored daily for 7 days after surgery. There were no significant differences in body weight, body temperature (36.5±0.5° C.), duration of surgery, or post-stroke mortality between cohorts. Each cohort contained an even distribution of mice from the matched strains or treatment groups.
Purified human C3a peptide (Complement Technologies) was diluted in sterile phosphate buffered saline (PBS) to a concentration of 200 nM and a total of 20 μl (10 μl/nostril; corresponding to approximately 1.13 μg/kg body weight) of peptide solution or PBS was given intranasally to awake, hand-restrained mice held in a supine position. Solutions were administered through a pipette tip, drop-wise in 5 μl portions divided by 1 min intervals to allow for absorption. C3a or PBS was given every 24 hours on days 7 to 21 post-stroke for the short-term study or on days 7 to 28 post-stroke for the long-term study. Mice were assigned to C3a or PBS treatment using randomization stratified by body weight to avoid potential confounding effects of body weight on behavioural performance. The investigators carrying out behavioural studies and analysing data were blinded to treatment group. For the assessment of potential systemic anaphylactic response due to intranasal C3a inoculation, body temperature was monitored using a rectal temperature probe (Harvard Apparatus) inserted approximately 4 mm into the rectum of awake mice restrained by the scruff. Baseline temperature was taken before intranasal administration and 5, 15, 30, 45 and 75 min after C3a or PBS administration.
Functional impairment of mice treated intranasally with C3a or vehicle was assessed using a modified cylinder test and a grid walking task to closely evaluate forepaw function. Mice were tested once on each task one week before stroke induction to establish baseline performance. Next, they were tested on days 7, 14 and 21 (short-term study) or days 7, 14, 28, 42 and 56 (long-term study) post-stroke. […]

Substance: C3a: Purified human C3a peptide (Complement Technologies), C3a receptor agonist, amino acid sequence SEQ ID NO: 1
- body weight gain [1]: neither the surgery nor the C3a treatment affected body weight gain
- right foot faults vs PBS-treated mice at days 14 and 56 post-stroke ([2]; long-term study, C3a days 7-28, P=0.0097 and P=0.047, Mann-Whitney U test): significantly fewer right foot faults
- grid walking performance day 56 vs pre-stroke baseline ([2]; long-term study, Dunn's test P=0.103): did not differ from pre-stroke baseline levels
- foot faults day 14 vs day 7 post-stroke (first week of treatment) ([2]; long-term study, P=0.041 Dunn's test, P=0.039 Wilcoxon test): significant reduction in foot faults
- right paw foot faults, days 14 and 21 vs day 7 ([2]; short-term study, C3a days 7-21, P=0.0545 and P=0.0839, Dunnett's test): tendency toward reduced number of right paw foot faults
- grid walking performance vs baseline at all time points after stroke ([2]; short-term study, P<0.001, both groups): significant impairment with respect to the baseline performance
